Experimental data as given in article PMC4627826, “Synthesis and Biological Evaluation of Novel Gigantol Derivatives as Potential Agents in Prevention of Diabetic Cataract” (PLoS ONE, 2015).
Like-named read-outs stand apart in the source and are kept apart here.

How the values were obtained:
aldose reductase (AR) = target: T1, aldose reductase (AR) (Homo sapiens, UniProt P15121); assay: AR inhibition assay (NADPH absorbance decrease at 340 nm, DL-glyceraldehyde substrate); format: biochemical; details: for IC50: mean ± SD (n = 3), NA = no activity
T1 construct: purchased Prospec-TanyTechnogene Ltd. (Israel)
Description: AR was purchased from Prospec-TanyTechnogene Ltd. (Israel). AR activity was evaluated as previously described. Briefly, the reaction mixture was composed of enzyme solution ([…], 20 μL), NADPH (0.104 mmol·L^-1, 50 μL; Italian Roth, Italy), DL-glyceraldehyde (10 mmol·L^-1, 50 μL; Sigma, U.S.), buffer phosphate (0.1 mol·L^-1), and selected concentrations of test compounds. The reaction was initiated by the addition of DL-glyceraldehyde as the substrate, and PBS was used as the blank control. The use of NAPDH, in parallel to AR activity, was monitored at room temperature for 10 min at 40 s intervals at 340 nm in an EnSpire™ Multimode Plate Reader. […] All assays were performed in triplicate.

[1] = test system: human lens epithelial cells (HLECs; SRA 01/04); assay: Cell viability (MTT) of HLECs treated with D-galactose; format: cell-based; details: for protection of HLECs from apoptosis (concentration not given): D-galactose-induced, tested at 0.1, 0.5, 1.0 μg·mL^-1
Description: Human lens epithelial cells (HLECs; SRA 01/04) were obtained from Dr. Fu Shang, USDA HNRCA at Tufts University, Boston, MA, U.S. and Zhongshan Ophthalmic Center, Sun Yat-sen University, Guangzhou, P. R. China and cultured in minimal essential medium (MEM) supplemented with 20% fetal bovine serum (FBS) and a cocktail of Penicillin-Streptomycin at 37°C in a humid environment containing 5% CO2 [52]. Cells were harvested at 80% confluency by trypsinization, and then fresh culture medium was added to generate single-cell suspensions for use in cell viability assays. HLECs were then seeded in 96-well cell culture grade microplates at a density of 1 × 10^5·mL^-1. After 24 h of incubation, the cells were treated for 72 h with 250 mmol·L^-1 D-galactose with and without test compounds (0.1, 0.5, or 1.0 μg·mL^-1).
Cell viability was assessed using an MTT assay. After the treatments, 20 μL of 5 mg·mL^-1 MTT solution was added to each well, followed by incubation for 4 h at 37°C. The resulting formazan crystals were then dissolved in 150 μL DMSO and absorbance measured at 570 nm using an EnSpire™ Multimode Plate Reader. The results are presented as percentages of cell survival as compared to the untreated control group, and all assays were performed in triplicate.

[2] = target: inducible nitric oxide synthase (iNOS) (Homo sapiens, UniProt P35228); assay: iNOS inhibition assay (Nitric Oxide Synthase Assay Kit, NO production); format: biochemical; details: mean ± SD (n = 3); NA = no activity; read-out: IC50, inhibitory effect on iNOS activity
Description: iNOS produces NO by catalyzing a reaction involving L-Arg and oxygen. Its activity was assessed by monitoring NO production using a Nitric Oxide Synthase Assay Kit (Nanjing Jiancheng Bioengineering Institute, China), which was developed based on the method of Fröhlich et al.. […] All assays were performed in triplicate.

[3] = read-out: IC50, inhibitory effect on AR activity
[4] = compound at 0.5 μg·mL^-1, 250 mmol·L^-1 D-galactose, 72 h
[5] = compound at 0.1 μg·mL^-1, 250 mmol·L^-1 D-galactose, 72 h
[6] = compound at 1.0 μg·mL^-1, 250 mmol·L^-1 D-galactose, 72 h

SMILES | IC50 (aldose reductase (AR); [3]) [µM] | melting point [°C] | protection of HLECs from apoptosis (concentration not given) [1] | IC50 [2] [µM] | other results
COc1cc(CCc2ccc(O)c(O)c2)ccc1O [Compound 14c, 4-(4-hydroxy-3-methoxyphenethyl)benzene-1,2-diol] | 534 ± 5.44 |  |  |  | 
COc1cc(CCc2cc(OC)cc(OC)c2)cc(OC)c1 [Compound 4, 1,2-bis(3,5-dimethoxyphenyl)ethane] | 347 ± 3.74 | 104.6 to 107.9 |  |  | 
Oc1cc(O)cc(CCc2cc(O)cc(O)c2)c1 [Compound 5, 5,5'-(ethane-1,2-diyl)dibenzene-1,3-diol5,5'-(ethane-1,2-diyl)dibenzene-1,3-diol] | 288.8 ± 2.16 | 245.9 to 248.1 | protected HLECs from apoptosis | 432.6 ± 2.37 | protection of HLECs from D-galactose-induced apoptosis [1, 4]: protected HLECs from apoptosis
COc1cc(O)cc(CCc2cccc3ccccc23)c1 [Compound 10, 3-methoxy-5-(2-(naphthalen-1-yl)ethyl)phenol] | 31.2 ± 1.51 | 103.9 to 106.7 | protected HLECs from apoptosis | 1189 ± 3.31 | cell survival (viability) of HLECs against D-galactose-induced apoptosis ([1]; 250 mmol·L^-1 D-galactose, 72 h, MTT, compounds at 0.1, 0.5 or 1.0 μg·mL^-1, percentage of Con): 72.26%; protection of HLECs from D-galactose-induced apoptosis [1, 4]: protected HLECs from apoptosis; potency in AR inhibition relative to synthetic gigantol (compound 14f) (aldose reductase (AR); more potent than 14f): 9 fold
COc1cc(CCc2cccc(OC)c2O)ccc1O [Compound 14b, 4-(2-hydroxy-3-methoxyphenethyl)-2-methoxyphenol] | 126 ± 1.3 |  | protected HLECs from apoptosis | 433.6 ± 4.23 | protection of HLECs from D-galactose-induced apoptosis [1, 5]: protected HLECs from apoptosis
COc1ccc(CCNC(=O)Cc2ccc(O)cc2)cc1OC [Compound 25, N-(3,4-dimethoxyphenethyl)-2-(4-hydroxyphenyl)acetamide] | 54.4 ± 2.39 | 151.7 to 153.2 |  |  | 
COc1cc(CCc2cc(Cl)ccc2O)ccc1O [Compound 14e, 4-chloro-2-(4-hydroxy-3-methoxyphenethyl)phenol] | 21.8 ± 5.47 |  |  |  | 
Oc1cc(O)cc(CCCc2ccc(F)cc2)c1 [Compound 21, 5-(3-(4-fluorophenyl)propyl)benzene-1,3-diol] | 556.3 ± 4.37 |  |  |  | 
Cc1ccc(S(=O)(=O)Nc2ccc(O)cc2)cc1 [Compound 23, N-(4-hydroxyphenyl)-4-methylbenzenesulfonamide] | 5.02 ± 2.57 |  |  |  | 
COc1cc(CCc2ccc(O)c(OC)c2)cc(OC)c1 [Compound 14d, 4-(3,5-dimethoxyphenethyl)-2-methoxyphenol] | 39.2 ± 2.13 |  |  |  | 
COc1cc(O)cc(CCc2ccc(O)c(OC)c2)c1 [Extractive gigantol, 4-[2-(3-hydroxy-5-methoxyphenyl)ethyl]-2-methoxyphenol, reference compound] | 2517 ± 10.3 |  | protected HLECs from apoptosis | 32.2 ± 2.61 | protection of HLECs from D-galactose-induced apoptosis [1, 6]: protected HLECs from apoptosis
COc1cc(CCc2cc(OC)c(O)c(OC)c2)ccc1O [Compound 14a, 4-(4-hydroxy-3-methoxyphenethyl)-2,6-dimethoxyphenol] | 17.3 ± 1.72 |  |  |  | 
COc1ccc(CNc2nc3ccccc3s2)c(O)c1 [Compound 17c, 2-((benzo[d]thiazol-2-ylamino)methyl)-5-methoxyphenol] | 243 ± 5.67 | 184.3 to 185.7 | protected HLECs from apoptosis |  | protection of HLECs from D-galactose-induced apoptosis [1, 5]: protected HLECs from apoptosis
CN(C)c1ccc(CCc2cc(O)cc(O)c2)cc1 [Compound 8] | 513.4 ± 2.33 | 152.5 to 154.1 | protected HLECs from apoptosis |  | protection of HLECs from D-galactose-induced apoptosis [1, 6]: protected HLECs from apoptosis
COc1ccc(CCNCc2ccc(O)cc2)cc1OC [Compound 17b, 4-((3,4-dimethoxyphenethylamino)methyl)phenol] |  | 116.7 to 118.6 |  |  | IC50 (aldose reductase (AR); IC50, inhibitory effect on AR activity): 174 ± 3.38 µM
COc1cc(O)cc(CCc2ccc(O)c(OC)c2)c1 [Compound 14f, 4-[2-(3-hydroxy-5-methoxyphenyl)ethyl]-2-methoxyphenol] | 176 ± 3.21 |  |  | 680.1 ± 3.28 | 
